PubChem BioAssay AID2060906 (Molecular Pharmacology Branch, DTP, NCI, 2025)

Tested on: 485176-168-R4-J1-PDC complex spheroid growth
Assay: Anticancer human tumor 485176-168-R4-J1-PDC patient-derived pancreatic adenocarcinoma cell line growth inhibition [RAS]
Settings: for IC50: curve of first compound; for viability, T/C: stronger effect = lower value
Summary of the method: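 Agents were tested in combination matrices in half-log decrements from a top concentration at or near clinical Cmax (10 microM if undetermined). Targets were multi-cell spheroids of tumour lines plus HUVEC and MSC stromal cells.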

[1] = second compound 0.000949 µM, first compound 0.0316 µM
[2] = second compound 0.000949 µM, first compound 0.1 µM
[3] = second compound 0.000949 µM, first compound 0.316 µM
[4] = second compound 0.000949 µM, first compound 1 µM
[5] = second compound 0.000949 µM, first compound 3.16 µM
[6] = second compound 0.000949 µM, first compound 10 µM
[7] = second compound 0.003 µM, first compound 0.0316 µM
[8] = second compound 0.003 µM, first compound 0.1 µM
[9] = second compound 0.003 µM, first compound 0.316 µM
[10] = second compound 0.003 µM, first compound 1 µM
[11] = second compound 0.003 µM, first compound 3.16 µM
[12] = second compound 0.003 µM, first compound 10 µM
[13] = second compound 0.00949 µM, first compound 0.0316 µM
[14] = second compound 0.00949 µM, first compound 0.1 µM
[15] = second compound 0.00949 µM, first compound 0.316 µM
[16] = second compound 0.00949 µM, first compound 1 µM
[17] = second compound 0.00949 µM, first compound 3.16 µM
[18] = second compound 0.00949 µM, first compound 10 µM
[19] = second compound 0.03 µM, first compound 0.0316 µM
[20] = second compound 0.03 µM, first compound 0.1 µM
[21] = second compound 0.03 µM, first compound 0.316 µM
[22] = second compound 0.03 µM, first compound 1 µM
[23] = second compound 0.03 µM, first compound 3.16 µM
[24] = second compound 0.03 µM, first compound 10 µM
[25] = second compound 0.0949 µM, first compound 0.0316 µM
[26] = second compound 0.0949 µM, first compound 0.1 µM
[27] = second compound 0.0949 µM, first compound 0.316 µM
[28] = second compound 0.0949 µM, first compound 1 µM
[29] = second compound 0.0949 µM, first compound 3.16 µM
[30] = second compound 0.0949 µM, first compound 10 µM
[31] = second compound 0.3 µM, first compound 0.0316 µM
[32] = second compound 0.3 µM, first compound 0.1 µM
[33] = second compound 0.3 µM, first compound 0.316 µM
[34] = second compound 0.3 µM, first compound 1 µM
[35] = second compound 0.3 µM, first compound 3.16 µM
[36] = second compound 0.3 µM, first compound 10 µM
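Further: spheroids exposed to compounds for seven days before readout.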
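Wherever viability, T/C is given: luminescence viability expressed relative to DMSO vehicle wells set as 100%.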

Structure (SMILES): CC(=O)OC12COC1CC(O)C1(C)C(=O)C(O)C3=C(C)C(OC(=O)C(O)C(NC(=O)OC(C)(C)C)c4ccccc4)CC(O)(C(OC(=O)c4ccccc4)C21)C3(C)C (stereo unspecified) + CCn1c(-c2cccnc2C(C)OC)c2c3cc(ccc31)N1CCOC(CC(NC(=O)C(C(C)C)N(C)C(=O)C3(F)CCN(C(=O)C#CC(C)(C)N(C)C)CC3)C(=O)N3CCCC(N3)C(=O)OCC(C)(C)C2)C1
- IC50 (second compound 0.000949 µM): < 0.0316 µM
- IC50 (second compound 0.003 µM): < 0.0316 µM
- IC50 (second compound 0.00949 µM): < 0.0316 µM
- IC50 (second compound 0.03 µM): < 0.0316 µM
- IC50 (second compound 0.0949 µM): < 0.0316 µM
- IC50 (second compound 0.3 µM): < 0.0316 µM
- viability, T/C [1]: 13.4%
- viability, T/C [2]: 13.8%
- viability, T/C [3]: 13.9%
- viability, T/C [4]: 10.7%
- viability, T/C [5]: 13.2%
- viability, T/C [6]: 17.7%
- viability, T/C [7]: 15.3%
- viability, T/C [8]: 12.7%
- viability, T/C [9]: 12.2%
- viability, T/C [10]: 14%
- viability, T/C [11]: 14.4%
- viability, T/C [12]: 16.7%
- viability, T/C [13]: 15.4%
- viability, T/C [14]: 14.8%
- viability, T/C [15]: 12.1%
- viability, T/C [16]: 11.9%
- viability, T/C [17]: 15%
- viability, T/C [18]: 17.6%
- viability, T/C [19]: 14.9%
- viability, T/C [20]: 12.4%
- viability, T/C [21]: 11.1%
- viability, T/C [22]: 10.3%
- viability, T/C [23]: 14.1%
- viability, T/C [24]: 16.8%
- viability, T/C [25]: 11.2%
- viability, T/C [26]: 10.4%
- viability, T/C [27]: 8.86%
- viability, T/C [28]: 9.58%
- viability, T/C [29]: 13.1%
- viability, T/C [30]: 16.4%
- viability, T/C [31]: 11.5%
- viability, T/C [32]: 9.61%
- viability, T/C [33]: 7.21%
- viability, T/C [34]: 9.28%
- viability, T/C [35]: 11.9%
- viability, T/C [36]: 16.4%

Structure (SMILES): C[C@@H](NC(=O)c1ncnc(N)c1Cl)c1ncc(C(=O)Nc2cc(C(F)(F)F)c(Cl)cn2)s1 + CCn1c(-c2cccnc2C(C)OC)c2c3cc(ccc31)N1CCOC(CC(NC(=O)C(C(C)C)N(C)C(=O)C3(F)CCN(C(=O)C#CC(C)(C)N(C)C)CC3)C(=O)N3CCCC(N3)C(=O)OCC(C)(C)C2)C1
- IC50 (second compound 0.000949 µM): > 10 µM
- IC50 (second compound 0.003 µM): > 10 µM
- IC50 (second compound 0.00949 µM): > 10 µM
- IC50 (second compound 0.03 µM): > 10 µM
- IC50 (second compound 0.0949 µM): > 10 µM
- IC50 (second compound 0.3 µM): 9.48 µM
- viability, T/C [1]: 101%
- viability, T/C [2]: 91.7%
- viability, T/C [3]: 100%
- viability, T/C [4]: 85.9%
- viability, T/C [5]: 72.2%
- viability, T/C [6]: 54.5%
- viability, T/C [7]: 88.6%
- viability, T/C [8]: 89.4%
- viability, T/C [9]: 86.2%
- viability, T/C [10]: 70.6%
- viability, T/C [11]: 71%
- viability, T/C [12]: 59.6%
- viability, T/C [13]: 87.1%
- viability, T/C [14]: 98.5%
- viability, T/C [15]: 83.7%
- viability, T/C [16]: 82.4%
- viability, T/C [17]: 91%
- viability, T/C [18]: 53%
- viability, T/C [19]: 81.3%
- viability, T/C [20]: 85.6%
- viability, T/C [21]: 102%
- viability, T/C [22]: 78.3%
- viability, T/C [23]: 75.6%
- viability, T/C [24]: 79.5%
- viability, T/C [25]: 89.9%
- viability, T/C [26]: 90.3%
- viability, T/C [27]: 78.5%
- viability, T/C [28]: 70.7%
- viability, T/C [29]: 74%
- viability, T/C [30]: 58.3%
- viability, T/C [31]: 75.2%
- viability, T/C [32]: 76.4%
- viability, T/C [33]: 65.7%
- viability, T/C [34]: 72.4%
- viability, T/C [35]: 59%
- viability, T/C [36]: 49.7%

Structure (SMILES): NC1c2ccccc2OC12CCN(c1cnc3c(N4CCCc5ncccc54)n[nH]c3n1)CC2 (stereo unspecified) + C=CC(=O)N1CCN(c2nc(OCC3CCCN3C)nc3c(F)c(-c4nc(N)cc(C)c4C(F)(F)F)c(Cl)cc23)C(C)C1
- IC50 (second compound 0.00316 µM): > 10 µM
- IC50 (second compound 0.01 µM): > 10 µM
- IC50 (second compound 0.0316 µM): > 10 µM
- IC50 (second compound 0.1 µM): > 10 µM
- IC50 (second compound 0.316 µM): > 10 µM
- IC50 (second compound 1 µM): > 10 µM
- viability, T/C (second compound 0.00316 µM, first compound 0.0316 µM): 81.4%
- viability, T/C (second compound 0.00316 µM, first compound 0.1 µM): 77.9%
- viability, T/C (second compound 0.00316 µM, first compound 0.316 µM): 71.7%
- viability, T/C (second compound 0.00316 µM, first compound 1 µM): 80.1%
- viability, T/C (second compound 0.00316 µM, first compound 3.16 µM): 77.2%
- viability, T/C (second compound 0.00316 µM, first compound 10 µM): 55.8%
- viability, T/C (second compound 0.01 µM, first compound 0.0316 µM): 84.1%
- viability, T/C (second compound 0.01 µM, first compound 0.1 µM): 75.3%
- viability, T/C (second compound 0.01 µM, first compound 0.316 µM): 87.9%
- viability, T/C (second compound 0.01 µM, first compound 1 µM): 70%
- viability, T/C (second compound 0.01 µM, first compound 3.16 µM): 79.1%
- viability, T/C (second compound 0.01 µM, first compound 10 µM): 62.9%
- viability, T/C (second compound 0.0316 µM, first compound 0.0316 µM): 82.9%
- viability, T/C (second compound 0.0316 µM, first compound 0.1 µM): 66.2%
- viability, T/C (second compound 0.0316 µM, first compound 0.316 µM): 76.7%
- viability, T/C (second compound 0.0316 µM, first compound 1 µM): 85.3%
- viability, T/C (second compound 0.0316 µM, first compound 3.16 µM): 72.9%
- viability, T/C (second compound 0.0316 µM, first compound 10 µM): 59.1%
- viability, T/C (second compound 0.1 µM, first compound 0.0316 µM): 91.2%
- viability, T/C (second compound 0.1 µM, first compound 0.1 µM): 86.5%
- viability, T/C (second compound 0.1 µM, first compound 0.316 µM): 71%
- viability, T/C (second compound 0.1 µM, first compound 1 µM): 72.6%
- viability, T/C (second compound 0.1 µM, first compound 3.16 µM): 84%
- viability, T/C (second compound 0.1 µM, first compound 10 µM): 81.7%
- viability, T/C (second compound 0.316 µM, first compound 0.0316 µM): 82.7%
- viability, T/C (second compound 0.316 µM, first compound 0.1 µM): 91.5%
- viability, T/C (second compound 0.316 µM, first compound 0.316 µM): 82.5%
- viability, T/C (second compound 0.316 µM, first compound 1 µM): 91.5%
- viability, T/C (second compound 0.316 µM, first compound 3.16 µM): 80.2%
- viability, T/C (second compound 0.316 µM, first compound 10 µM): 61%
- viability, T/C (second compound 1 µM, first compound 0.0316 µM): 91.5%
- viability, T/C (second compound 1 µM, first compound 0.1 µM): 68.8%
- viability, T/C (second compound 1 µM, first compound 0.316 µM): 69.5%
- viability, T/C (second compound 1 µM, first compound 1 µM): 72.1%
- viability, T/C (second compound 1 µM, first compound 3.16 µM): 74%
- viability, T/C (second compound 1 µM, first compound 10 µM): 66.2%
